Data as given in PMC6358775, “Elucidation of Vasodilation Response and Structure Activity Relationships of N^2,N^4-Disubstituted Quinazoline 2,4-Diamines in a Rat Pulmonary Artery Model” (Molecules, 2019).
Converted amounts (≈) assume the structure as drawn. Where two headings read alike, the source gives them in different places.

Tests used:
[1] = tested on: PE-induced contraction of endothelium-denuded pulmonary arterial rings; assay: Inhibition of phenylephrine (PE)-induced contraction in endothelium-denuded arterial rings; parameters: species or system rat; conditions: 10 µM compound, 15 min pre-incubation, E− rings; for inhibition at 10 µM: Rattus norvegicus, PE 0.0001–100 µM, n = 3–5, read-out: % PE-Contraction Inhibition (SEM); for maximal contraction induced by PE attenuated to: remaining contraction
Experimental: These experiments were undertaken to assess the pharmacological activity of quinazoline analogues against the structurally related α1 receptor blocker (prazosin). In contrast to previous vasorelaxant experiments, this protocol was developed to determine the inhibitory effect of pre-incubated (15 min) inhibitors (10 µM) on the concentration-dependent vasoconstriction induced by cumulative addition of PE (0.0001–100 µM) in endothelium-denuded pulmonary arterial rings. Figure 5 illustrates the real time contractile response shown by the pulmonary arterial ring upon cumulative addition of PE, which evoked a concentration-dependent vasoconstriction, increasing the vessel’s tension.
After anesthesia with thiopental sodium (100 mg/kg, i.p.) (Anesthal®, Jagsonpsal Pharmaceutical Ltd., Haryana, India), rats were euthanized by exsanguination. Lungs were carefully excised, cleaned by the removal of connective tissue, and placed in cold physiological Krebs’ solution composed of (mM): NaCl 122; KCl 5; N-[2-hydroxyethyl] piperazine-N′-[2-ethane-sulfonic acid] (HEPES) 10; KH2PO4 0.5; NaH2PO4 0.5; MgCl2 1; CaCl2 1.8; and glucose 11 adjusted to pH 7.3 using 1 M NaOH. The pulmonary artery was isolated from the lungs and cut into rings approximately 2 mm in length before mounting in the organ bath chambers. Endothelial cells were mechanically removed in some experiments by gentle rubbing of the inner surface with forceps. Pulmonary arterial rings were mounted on intraluminal wires via stainless steel hooks maintaining the resting tension at 1 g and rings were equilibrated for 30 min before obtaining a stable contraction with 10^−5 M phenylephrine (PE). The rings were immersed in 10 mL baths containing physiological Krebs’ solution at 37 °C, which was continuously bubbled with air. Force transducers were connected with intraluminal wires to measure isometric tension via a Mac Lab A/D converter (Chart V5, A.D. Instruments, Castle Hill, NSW, Australia). The functional integrity of the endothelium in the vessels was confirmed by vasorelaxation of ≥70% with sequential addition of 10^−5 M acetylcholine (ACh) to pre-contracted vessels with 10^−5 M PE. Relaxations ≤30% to 10^−5 M ACh in vessels rubbed mechanically were considered successfully endothelium denuded.
The protocol included the assessment of the inhibitory vasoconstriction effect of quinazoline test compounds on endothelium-denuded arterial rings. Briefly, the arterial rings were treated with the α1-receptor blocker (prazosin) or test compound at a concentration of 10 µM for 15 min before construction of the second concentration response curve with cumulative addition of PE (0.0001–100 µM). The same conditions were used to test the effects of the solvent (DMSO 0.2%). The results were obtained in percentages by comparison of the maximum contraction without treatment with the contraction in the presence of the test compound [24, 36, 37].

[2] = Equilibrium shake-flask solubility in PBS pH 7.4; conditions: for solubility thermodynamic at 6 h: pH 7.4, aqueous buffer, thermodynamic from solid
Experimental: The solubility of the compounds under investigation here were assessed in phosphate buffer at pH 7.4 using the equilibrium shake-flask method.
An equilibrium shake-flask technique was used to determine the solubility of samples in PBS at pH 7.4. Approximately 1 mg of sample was placed in a 10 mL glass screw top vial and dissolved in 1 mL of 0.02 M PBS at pH 7.4. The solution was sonicated for 1 h, followed by shaking for 6 h (IKA HS 260). The saturated solution was then filtered using a nylon syringe filter. A standard solution of each sample was prepared by dissolving a weighed amount of the sample in 1 mL of DMSO. The concentration of sample dissolved in the PBS solution was determined by comparing the peak area of the PBS and DMSO standard using an Agilent 1100 series HPLC with a Sunshell C8 column (Chromanik Technologies Inc., Osaka, Japan). A 100 µL injection of the aqueous sample and 5 µL of DMSO solution (pre-diluted 100 fold using DMSO) were used.

[3] = tested on: endothelium-intact rat pulmonary arterial rings; assay: Vasorelaxation of PE pre-contracted endothelium-intact (E+) pulmonary arterial rings, organ bath; conditions: for Emax / EC50 / IC50: Rattus norvegicus; for EC50: endothelium-intact (E+) rings pre-contracted with 10^-5 M PE, cumulative 0.0001–30 µM, mean (SEM), n = 6, read-out: Vaso E+ EC50 µM (SEM); for IC50: Table S3, endothelium-intact, read-out: E+ Vaso. pIC50 (converted)
[4] = tested on: endothelium-denuded rat pulmonary arterial rings; assay: Vasorelaxation of PE pre-contracted endothelium-denuded (E−) pulmonary arterial rings, organ bath; conditions: for EC50: endothelium-denuded (E−) rings pre-contracted with 10^-5 M PE, cumulative 0.0001–30 µM, mean (SEM), n = 6, read-out: Vaso E− EC50 µM (SEM); for Emax: maximal relaxation, endothelium-denuded rings, up to 30 µM, mean ± SEM; for IC50: Table S3, endothelium-denuded, read-out: E- Vaso. pIC50 (converted)
A549 cells = assay: MTT cytotoxicity assay in A549 cells; type: cell-based; conditions: Homo sapiens
Experimental: A 3-[4,5-dimehyl-2-thiazolyl]-2,5-diphenyl-2H-tetrazoliumbromide (MTT) assay was utilized to assess the concentration-response curves for quinazoline analogues as previously reported. A549 cells (ATCC CCL-185, human alveolar basal epithelial cell line) were used to account for the general cytotoxicity of compounds. Cells were cultured in DMEM medium containing fetal bovine serum (FBS; 10%), penicillin (10 U/mL), and streptomycin (100 U/mL). The temperature was maintained at 37 °C with 5% CO2. Cells were seeded for 16–18 h in DMEM and incubated for 72 h with the test compounds. After incubation, MTT (5 mg/mL in normal saline) was added with DMEM and incubated for 3 h. Careful decantation of the medium and addition of DMSO (50 µL) was done. Absorbance values were recorded at 570 nm after 5 min mechanical shaking of the microplate (Sunrise microplate reader, Tecan).
The activity was presented as the inhibitory concentration required to produce a 50% response (IC50). Prism 6.0 GraphPad Software Inc., (San Diego, CA, USA) was utilized for data fitting. 0.5% DMSO was used as the negative control.

[5] = maximal relaxation, endothelium-intact rings, up to 30 µM, mean ± SEM
[6] = A549, MTT, 72 h incubation, read-out: A549 IC50, µM (S.D.)
[7] = Table S3, A549, read-out: Cytox. pIC50 (converted)

SMILES	EC50 [3]	EC50 [4]	Log Sol ([2]; 6 h, pH 7.4)	Sol. pH7.4 (µM) ([2]; 6 h, pH 7.4)	solubility thermodynamic at 6 h [2]	IC50 [3]	IC50 [4]	inhibition at 10 µM [1]	Sol. pH7.4 mg/mL ([2]; PBS pH 7.4, shake-flask)	Sol. pH7.4 (µM) ([2]; PBS pH 7.4, shake-flask, value in brackets)	solubility thermodynamic at 6 h ([2]; phosphate buffered saline (PBS))	Emax [3, 5]	Emax [4]	IC50 (A549 cells; [6])	IC50 (A549 cells; [7])	maximal contraction induced by PE attenuated to [1]	E+ Emax (%) [3, 5]
CCCc1nn(C)c2c(=O)[nH]c(-c3cc(S(=O)(=O)N4CCN(C)CC4)ccc3OCC)nc12 [Sildenafil (SIL), Sildenafil, reference compound]	0.14 µM	0.89 µM						58.3%	20.83 mg/mL	43.88 µM	20800 µg/mL (≈ 43900 µM)	97.8 ± 2.19%	85.8 ± 6.41%				
c1ccc(CNc2nc(Nc3ccccc3)nc3ccccc23)cc1 [Compound 1]	5.54 µM	13.5 µM	-0.39	0.41 µM	130 µg/mL (≈ 398 µM)	5.5 µM	13.5 µM					90 ± 5.64%	86.4 ± 4.03%	12.3 µM	12.3 µM		
NS(=O)(=O)c1cccc(Nc2nc(NCc3ccccc3)c3ccccc3n2)c1 [Compound 5]	1.63 µM	1.15 µM	0.14	1.37 µM	560 µg/mL (≈ 1380 µM)	1.62 µM	1.15 µM					91.7 ± 3.77%	95.8 ± 2.4%	11.2 µM	11.2 µM		
CN(C)S(=O)(=O)c1ccc(Nc2nc(NCc3ccccc3)c3ccccc3n2)cc1 [Compound 3]	3.59 µM	6.25 µM	-0.06	0.88 µM	380 µg/mL (≈ 877 µM)	3.55 µM	6.31 µM					82.4 ± 5.9%	64.3 ± 5.31%	18.3 µM	18.2 µM		
c1ccc(Nc2nc(NCc3cccs3)c3ccccc3n2)cc1 [Compound 6]	9.42 µM	9.51 µM	-0.40	0.40 µM	130 µg/mL (≈ 391 µM)	9.33 µM	9.33 µM					88 ± 7.39%	91.2 ± 5.26%	27.8 µM	27.5 µM		
NS(=O)(=O)c1ccc(Nc2nc(NCc3ccccc3)c3ccccc3n2)cc1 [Compound 4]	3.13 µM	8.29 µM	-1.52	0.03 µM	10 µg/mL (≈ 24.7 µM)	3.16 µM	8.32 µM					88.5 ± 5.58%	78.5 ± 9.19%	23 µM	22.9 µM		
c1ccc(CNc2nc(Nc3ccc(N4CCOCC4)cc3)nc3ccccc23)cc1 [Compound 2]	4.98 µM	12 µM	-0.22	0.60 µM	250 µg/mL (≈ 608 µM)	5.01 µM	12 µM	56.6%				94.7 ± 3.33%	85.7 ± 6.05%	12.1 µM	12 µM	43.38 ± 5.90%	

More lines, main results first:

EC50 [3]	EC50 [4]	Log Sol ([2]; 6 h, pH 7.4)	Sol. pH7.4 (µM) ([2]; 6 h, pH 7.4)	solubility thermodynamic at 6 h [2]	IC50 [3]	IC50 [4]	SMILES	inhibition at 10 µM [1]	Sol. pH7.4 mg/mL ([2]; PBS pH 7.4, shake-flask)	Sol. pH7.4 (µM) ([2]; PBS pH 7.4, shake-flask, value in brackets)	solubility thermodynamic at 6 h ([2]; phosphate buffered saline (PBS))	Emax [3, 5]	Emax [4]	IC50 (A549 cells; [6])	IC50 (A549 cells; [7])	maximal contraction induced by PE attenuated to [1]	E+ Emax (%) [3, 5]
1.46 µM	5.15 µM	0.08	1.20 µM	450 µg/mL (≈ 1200 µM)	1.45 µM	5.13 µM	NC(=O)c1ccc(Nc2nc(NCc3cccs3)c3ccccc3n2)cc1 [Compound 10]					90.2 ± 6.48%	90.4 ± 5.3%	28.3 µM	28.2 µM		
2.28 µM	10.9 µM	-0.47	0.34 µM	140 µg/mL (≈ 340 µM)	2.29 µM	11 µM	NS(=O)(=O)c1cccc(Nc2nc(NCc3cccs3)c3ccccc3n2)c1 [Compound 11]					98.7 ± 1.26%	87.4 ± 4.66%	15 µM	15.1 µM		
4.1 µM	> 30 µM	-0.66	0.22 µM	100 µg/mL (≈ 214 µM)	4.07 µM	> 30 µM	O=C(Nc1ccccc1)Nc1ccc(Nc2nc(NCc3cccs3)c3ccccc3n2)cc1 [Compound 7]	43.6%				76 ± 5.73%	22.3 ± 4.4%	2.91 µM	2.88 µM	57.57 ± 5.99%	
1.03 µM	1.72 µM	-0.80	0.16 µM	60 µg/mL (≈ 146 µM)	1.02 µM	1.74 µM	NS(=O)(=O)c1ccc(Nc2nc(NCc3cccs3)c3ccccc3n2)cc1 [Compound 9]					98.4 ± 1.4%	82.1 ± 8.43%	32.7 µM	32.4 µM		
6.61 µM	3.02 µM	-0.42	0.38 µM	150 µg/mL (≈ 379 µM)	6.61 µM	3.02 µM	NS(=O)(=O)c1cccc(Nc2nc(NCc3ccco3)c3ccccc3n2)c1 [Compound 13]	45.9%				95.5 ± 2.17%	95.6 ± 2.75%	26.9 µM	26.9 µM	54.07 ± 11.69%	
4.15 µM	8.15 µM	-0.25	0.56 µM	210 µg/mL (≈ 559 µM)	4.17 µM	8.13 µM	NC(=O)c1cccc(Nc2nc(NCc3cccs3)c3ccccc3n2)c1 [Compound 12]					98.7 ± 1.31%	87.1 ± 3.63%	15.4 µM	15.5 µM		
0.58 µM	8.5 µM	-0.32	0.48 µM	200 µg/mL (≈ 479 µM)	0.575 µM	8.51 µM	c1csc(CNc2nc(Nc3ccc(N4CCOCC4)cc3)nc3ccccc23)c1 [Compound 8]	42.4%				98.8 ± 0.79%	100%	11.4 µM	11.5 µM	56.38 ± 7.10%	98.88 ± 0.79%
